Key:
[1] = system: Tg(nphs2:GAL4-VP16); Tg(UAS:Eco.nfsB-mCherry) zebrafish larvae; assay: Edema progression in zebrafish larvae after MTZ podocyte injury (FSGS model), edema types 1-4; format: in vivo; details: for edema progression/formation at 10 μM: 10 μM compound in conjunction with MTZ, compared to MTZ group; for edema progression/formation at 10 μM / most effective concentration for prevention of proteinuric edema: until 8 dpf; for lethality at 100 μM: 100 μM compound in conjunction with MTZ (2 days); for effect in terms of proteinuric edema progression/formation: injury model, in conjunction with MTZ; for progression of podocyte injury induced in the disease model: zebrafish larvae model of FSGS, effects concentration-dependent; for most effective concentration for prevention of proteinuric edema: different concentrations in conjunction with MTZ
Procedure: The results are depicted in FIG. 4. A treatment for 48 hours from 4 to 6 dpf with MTZ induces edema formation of four different severities in this strain, scaling from type 1=no edema to type 4=severe edema (FIG. 3). Edema severity of larvae treated with DMSO, MTZ and MTZ plus 1 μM, 10 μM or 100 μM belinostat was categorized at 6, 7 and 8 dpf (FIG. 4). […] Co-treatment with MTZ and 100 μM belinostat induced edema formation in 15% of larvae with 0% type 4 edema in contrast to 60% edema with 31% type 4 edema in the MTZ group. At 7 dpf, progression of edema formation was decelerated in all three groups for all three types of edema that received belinostat, again in a dose-dependent manner. MTZ caused type 4 edema in 56.4% of larvae at 7 dpf, contrary to 1.9% edema in the MTZ+100 μM belinostat group. […] 83.6% of larvae treated with MTZ developed edema with 58.2% showing type 4 edema. […] 10 μM belinostat+MTZ induced edema 80% of larvae with 34.5% type 4 edema. Co-treatment of MTZ with 100 μM belinostat caused edema formation in 64.2% of larvae with 28.3% type 4 edema (FIG. 4).
FIG. 3 depicts the different degrees of podocyte injury progression: 1: no edema, 2: slight edema, 3: moderate edema, 4: severe edema. Black arrowheads show periocular and blank arrowheads depict abdominal edema. Scale bar: 500 μm.
FIG. 4 depicts the results of Example 3, measuring the edema progression in larvae that were treated with different concentrations of belinostat in conjunction with MTZ. Edema progression was measured according to the categories of in larvae until 8 dpf following MTZ injury with various concentration of belinostat (DMSO n=52, MTZ n=55, MTZ+1 μM belinostat n=52, MTZ+10 μM belinostat n=55, MTZ+100 μM belinostat n=53).

Mice (C57BL/6) = assay: NTS (nephrotoxic serum) induced glomerular injury in mice, plasma creatinine; format: in vivo, mouse; details: NTS with low dose belinostat (25 mg/kg) compared to NTS injury group
Procedure: Mice (C57BL/6) were treated with PBS (healthy control), NTS (nephrotoxic serum, injury control), NTS with low dose belinostat (25 mg/kg) and NTS with high dose belinostat (50 mg/kg).

[2] = system: podocytes / glomerular filtration barrier of MTZ-injured zebrafish larvae; assay: Zebrafish larvae podocyte injury screening: vascular eGFP (proteinuria) and glomerular mCherry (podocyte depletion) fluorescence ratios; details: for podocyte protection in drug library screen: co-treatment 80 μM MTZ + 100 μM compound, 24 h from 4 to 5 dpf, 12 larvae per compound
Procedure: Groups of 12 larvae from one clutch were distributed into a 24-well plate (#662160 Greiner, Frickenhausen, Germany). For each clutch, 12 larvae were treated with 0.2% DMSO in E3 as negative control and 12 larvae were treated with 80 μM Metronidazole (MTZ) in DMSO in E3 as injury control and comparison group. The Fraunhofer ScreeningPort IME provided an epigenetic drug library which was used for this screening (Table 1). […] The treatment volume was 400 μl for each well with 12 larvae, the wells were sealed with Adhesive Clear PCR Seal (#600208, Biozym Scientific GMBH, Hessisch-Oldendorf) in order to prevent evaporation and plates were incubated at 28.5° C., wrapped in aluminum foil to prevent effects of light. After 24 hours, compounds were washed out in three changes of 0.5×E3.
After washout at 5 dpf, E3 in the 12-well plate was replaced with E3 containing 0.4 mg/ml tricaine. Larvae were then individually transferred into wells of a 96-well plate (#644101, Greiner) which was prepared with custom agarose molds. For the molds, 45 μl of 0.7% boiling hot agarose (Biozym LE agarose) were transferred with a multichannel pipette into each well. After 3 min cooldown, a custom 3D printed orientation tool (Wittbrodt, Jonas N., Urban Liebel, and Jochen Gehrig. “Generation of orientation tools for automated zebrafish screening assays using desktop 3D printing.” BMC biotechnology 14.1 (2014): 1-6) was inserted into the agarose which produced cavities for orientation. Each larva was transferred with 100 μl tricaine containing E3 into the single wells of the 96-well plate (Row A was always 12×DMSO, Row B was always 12×MTZ, Row C-H were compounds+MTZ) and was then oriented laterally in the molds with a short piece of fishing line glued to a bend injection needle under the stereomicroscope manually with special attention to a flat caudal region.
Image acquisition for the screening was performed with an Imaging Machine ([…] Imaging GmbH, Heidelberg, Germany). […] Overview images of each laterally oriented larva were obtained with a 2× objective (40% LED intensity, 30 ms integration). For each larva, a region of interest (ROI) at the tail region caudal of the cloaca was selected with the Acquifer PlateViewer (V1.7.1, […]) for the 10× objective in order to image the blood flow and vasculature. After creating custom modificated imaging scripts via FIJI (Schindelin, Johannes, et al. “Fiji: an open-source platform for biological-image analysis.” Nature methods 9.7 (2012): 676-682), 10 consecutive brightfield frames at a framerate of 33 Hz were acquired (10× objective, 100% LED intensity, 30 ms integration) followed by one frame at 470 nm (10× objective, 50% LED intensity, 50 ms integration). […] The focal plane for both acquisitions was detected with a built-in two-step software autofocus (10× objective, 2×2 binning, 10% LED intensity, 10 ms integration, first step: 31 slices with 50 μm distance, second step: 10 slices with 10 μm slice distance, brightfield for the caudal vasculature, 555 nm for glomerular mCherry).
Following image acquisition, tricaine-containing E3 was washed out two times of each well and replaced by 150 μl E3. […] In this way, two values for the vascular eGFP fluorescence and two values for the glomerular mCherry fluorescence were obtained for each individual larva.

[3] = system: wildtype (AB/TU strain) zebrafish larvae; assay: Toxicity of belinostat treatment on wildtype zebrafish larvae; format: in vivo; details: 250 μM belinostat, treated for 48 hours, at day 8
Procedure: Larvae were treated for 48 hours and edema as well as malformations were assessed until 8 dpf.

[4] = 10 μM compound + 80 μM MTZ vs MTZ alone

## CC(C)[C@H](C(=O)Nc1ccc(C(=O)NO)cc1)c1ccccc1 [AR-42, N-hydroxy-4-[[(2S)-3-methyl-2-phenylbutanoyl]amino]benzamide]
[1]
  edema progression/formation at 10 μM: able to prevent proteinuric edema
  lethality at 100 μM: lethal
  effect in terms of proteinuric edema progression/formation: protective effect
  progression of podocyte injury induced in the disease model: significantly slowed the progression of podocyte injury

## C#Cc1cccc(Nc2ncnc3cc(OC)c(OCCCCCCC(=O)NO)cc23)c1 [CUDC-101, 7-[4-(3-ethynylanilino)-7-methoxyquinazolin-6-yl]oxy-N-hydroxyheptanamide]
[1]
  most effective concentration for prevention of proteinuric edema: 10 µM
  effect in terms of proteinuric edema progression/formation: protective effect
  progression of podocyte injury induced in the disease model: significantly slowed the progression of podocyte injury

## O=C(/C=C/c1ccc(CN(CCO)CCc2c[nH]c3ccccc23)cc1)NO [Dacinostat, (E)-N-hydroxy-3-[4-[[2-hydroxyethyl-[2-(1H-indol-3-yl)ethyl]amino]methyl]phenyl]prop-2-enamide]
[1]
  edema progression/formation at 10 μM: successfully prevented edema formation
  lethality at 100 μM: lethal
  effect in terms of proteinuric edema progression/formation: protective effect
  progression of podocyte injury induced in the disease model: significantly slowed the progression of podocyte injury

## O=C(CCCCCN1C(=O)c2cccc3cccc(c23)C1=O)NO [Scriptaid, 6-(1,3-Dioxo-1H,3H-benzo[de]isoquinolin-2-yl)-N-hydroxyhexanamide]
[1]
  edema progression/formation at 10 μM: successfully prevented edema progression
  lethality at 100 μM: in the lethal range
  effect in terms of proteinuric edema progression/formation: protective effect
  progression of podocyte injury induced in the disease model: significantly slowed the progression of podocyte injury

## O=C(CCCCCCC(=O)Nc1ccccc1)NO [Vorinostat, N′-hydroxy-N-phenyloctanediamide]
[1]; 100 μM compound in conjunction with MTZ, 6 dpf
  formation of moderate (type 3) edema: able to prevent formation of moderate edema
[1]
  effect in terms of proteinuric edema progression/formation: protective effect
  progression of podocyte injury induced in the disease model: significantly slowed the progression of podocyte injury

## O=C(/C=C/c1cccc(S(=O)(=O)Nc2ccccc2)c1)NO [belinostat, (2E)-N-hydroxy-3-[3-(phenylsulfamoyl)phenyl]prop-2-enamide]
Mice (C57BL/6)
  plasma creatinine concentration: reduce plasma creatine concentrations significantly
[2]; [4]
  loss of podocyte mCherry fluorescence (glomerular fluorescence ratio 6 dpf/5 dpf): significantly reduced loss of podocyte mCherry fluorescence
  renal leakage of 78 kDa VDP-eGFP through the glomerular filtration barrier (vascular eGFP fluorescence ratio 6 dpf/5 dpf): could prevent the renal leakage
[2]; 10 μM compound alone, without MTZ injury
  harmful effect on the glomerular filtration barrier or podocyte vitality: no harmful effect
[2]
  podocyte protection in drug library screen: podocyte-protective
[1]; MTZ + 1 μM belinostat, 8 dpf (MTZ group 58.2%)
  larvae with type 4 edema: 44.2%
[1]; MTZ + 1 μM belinostat, 8 dpf (MTZ group 83.6%)
  larvae with edema formation: 80.8%
[1]; MTZ + 10 μM belinostat, 8 dpf (MTZ group 58.2%)
  larvae with type 4 edema: 34.5%
[1]; MTZ + 10 μM belinostat, 8 dpf (MTZ group 83.6%)
  larvae with edema formation: 80%
[1]; MTZ + 100 μM belinostat, 6 dpf (MTZ group 31%)
  larvae with type 4 edema: 0%
[1]; MTZ + 100 μM belinostat, 6 dpf (MTZ group 60%)
  larvae with edema formation: 15%
[1]; MTZ + 100 μM belinostat, 7 dpf (MTZ group type 4 edema 56.4%)
  larvae with edema (contrasted with type 4 edema of MTZ group): 1.9%
[1]; MTZ + 100 μM belinostat, 8 dpf (MTZ group 58.2%)
  larvae with type 4 edema: 28.3%
[1]; MTZ + 100 μM belinostat, 8 dpf (MTZ group 83.6%)
  larvae with edema formation: 64.2%
[1]; MTZ + 1, 10 or 100 μM belinostat, 7 dpf, dose-dependent
  progression of edema formation: decelerated
[1]; MTZ + 1, 10 or 100 μM belinostat, after washout at 6 dpf, dose-dependent
  number of larvae with type 3 and 4 edema: reduced number of larvae with type 3 and 4 edema
[1]; MTZ from 4-6 dpf and continuously belinostat until 8 dpf, vs belinostat until day 6
  edema progression with continuous treatment: ameliorated most
[1]; belinostat treatment groups, 8 dpf
  delay in edema formation: stayed consistent
[1]
  progression of podocyte injury induced in the disease model: significantly slowed the progression of podocyte injury
[3]
  larvae for which treatment is lethal: 35%

## O=C(/C=C/C#Cc1cccc(NS(=O)(=O)c2ccccc2)c1)NO [oxamflatin, 5-[3-(benzenesulfonamido)phenyl]-N-hydroxypent-2-en-4-ynamide]
[2]
  podocyte protection in drug library screen: podocyte-protective
[1]
  most effective concentration for prevention of proteinuric edema: 100 µM
  progression of podocyte injury induced in the disease model: significantly slowed the progression of podocyte injury

From patent US20250367145A1, “COMPOUNDS FOR USE IN THE TREATMENT OF KIDNEY DISEASES” (Universitätsmedizin Greifswald, priority 2022, published 2025)
